Patent US20050232860A1, “Use of edg-receptor agonists for the treatment of hypertension” (priority 2001, published 2005)
Structures can show the parent of a compound that is named as a salt.

How the values were obtained:
[1] = tested on: PC12 cells; assay: Veratridine-evoked [^3H]noradrenaline release from PC12 cells; assay type: cell-based, rat; conditions: for activity at 100 µM: PC-12, read-out: Veratridine (1 mM)-induced [^3H]noradrenaline release (% of controls without drug); for effect on veratridine-induced [^3H]noradrenaline release (concentration-response): in the presence of 3 μM rauwolscine; for effect on veratridine-evoked [^3H]noradrenaline release, given alone: CB1 antagonist given alone; for effect on evoked tritium overflow: 3 μM rauwolscine; for effect on veratridine-evoked [^3H]noradrenaline release (concentration-response): in the absence of rauwolscine / interacting drugs
Procedure: PC12 cells were cultured in suspension culture as described by Harder and Bönisch (1984). […] For the experiments on intact cells, PC12 cells were cultured in a humidified CO2-incubator (at 37° C. and in the presence of 9% CO2) on dishes (60 mm, Nunc) coated with polyornithine 0.1 g/l (in 0.15 M boric acid, and 67 mM NaOH, adjusted with HCl to pH 8.4). Each culture dish contained about 10^7 cells corresponding to about 1 mg cell protein.
To load the cells with labelled noradrenaline, 10 nM [^3H]noradrenaline was added to the culture medium (3 ml/dish) and the cells were incubated for 3 h in a CO2-incubator (37° C.). To minimize oxidation of the catecholamine, L(+)-ascorbic acid (1 mM) was present in all solutions. The cells were then washed twice with culture medium and incubated for 60 min with [^3H]noradrenaline-free culture medium (with a change of the medium after 30 min). Subsequently the cell dishes were transferred to a water bath of 37° C. (onset of the experiment) and the cells were then incubated until the end of the experiment with prewarmed (37° C.) [^3H]noradrenaline-free HEPES-buffered salt solution (composition in mM unless stated otherwise: NaCl 125, KCl 15, KH2PO4 1.2, CaCl2 2.6, MgSO4 1.2, HEPES-NaOH (pH 7.4) 25, D(+)-glucose 5.6, L(+)-ascorbic acid 1.0) with a change of the medium every 5 min (total incubation time in the HEPES buffer: 85 min). To minimize loss of cells during washing und to inhibit the neuronal noradrenaline transport system the solution contained 1 g/l bovine serum albumin and 1 μM desipramine, respectively (Friedrich and Bönisch, 1986). The agonist and/or antagonist under study was added to the HEPES buffer at the onset of the exposure to this buffer. Sixty min after onset of incubation with the buffer 1 mM veratridine was added for 5 min. In a few experiments, the HEPES-buffered salt solution contained 4.8 instead of 15 mM KCl and stimulation was carried out either by 1 mM veratridine or by increasing the KCl concentration to 15 mM (time schedule identical to the standard procedure). In one series of experiments, culture medium was changed daily (instead of changing it every 3 days as standard condition) and 100 μM clonidine was added to the medium for 72 h. The cells were then washed twice with clonidine-free culture medium (with a change of the medium after 30 min). Subsequently the cell dishes were transferred to a water bath of 37° C. (onset of the experiment) and the cells were then incubated until the end of the experiment with prewarmed (37° C.) [^3H]noradrenaline-free HEPES-buffered salt solution and veratridine was administered 2 h after the end of exposure to clonidine. Basal efflux of tritium was determined in the 5-min period before and in that 20 min after onset of stimulation. Veratridine-evoked tritium overflow was determined in the four 5-min periods after the onset of veratridine application. At the end of the experiment, the cells were solubilized by 0.1% v/v TritonX-100 (in 5 mM Tris-HCl, pH 7.4). The radioactivity of the solubilized cells und of the wash-out samples was determined by liquid scintillation counting.

[2] = target: T1, h(edg2) receptor (Homo sapiens, UniProt Q92633); assay: Agonist-induced [^35S]GTPγS binding to membranes from RH7777 cells stably transfected with h(edg2) receptors; assay type: biochemical; conditions: for effect on [^35S]GTPγS-binding: nanomolar concentrations, 10 μM rauwolscine, 0.1 μM GDP; for agonist character at the edg2-receptor: increase to the same extent as for the endogenous ligand LPA
T1 construct: expressed in transfected cells; host or cells: RH7777 cells (rat hepatoma cells), membranes
Procedure: RH7777 cells (rat hepatoma cells) stably transfected with cDNA encoding the h(edg2) receptor and PC12 cells were homogenized in ice-cold 20 mM HEPES buffer containing […] EDTA (pH 7.4 at RT) with an ultraturrax homgenizer and centrifuged at 48,000 g, 4° C. for 15 min. The pellet was resuspended in ice-cold 20 mM HEPES buffer containing 0.1 mM EDTA (pH 7.4 at RT) and recentrifuged at 48,000 g, 4° C. for 15 min. The final pellet was resuspended in 20 mM HEPES buffer (pH 7.4 at RT).
50 μg Membranes were incubated in 0.5 ml of GTP-binding buffer containing GDP 0.1 μM, rauwolscine 10 μM (in the experiments with membranes from RH7777 cells), [^35S]GTPγs 0.05 nM and indicated test compound (LPA, clonidine or moxonidine diluted in assay buffer containing 1% fatty acid free BSA) for 45 min at 30° C. The incubation was terminated by filtering over GF/B filters with a cell harvester, and the filters were washed once with 5 ml of ice-cold assay buffer. Radioactivity was counted by liquid scintillation spectrometry at an efficiency of >95%.

[3] = tested on: α2-adrenoceptors; assay: [^3H]rauwolscine radioligand binding to membranes from undifferentiated PC12 cells; parameters: species or system rat; conditions: 16.8 nM radioligand; for [^3H]Rauwolscine binding: n=4
Procedure: Results are expressed as mean values±SEM. All experiments were carried out in triplicate.

[4] = drug 100 μM, 3 μM rauwolscine present

T1 sequence (Q92633 whole entry): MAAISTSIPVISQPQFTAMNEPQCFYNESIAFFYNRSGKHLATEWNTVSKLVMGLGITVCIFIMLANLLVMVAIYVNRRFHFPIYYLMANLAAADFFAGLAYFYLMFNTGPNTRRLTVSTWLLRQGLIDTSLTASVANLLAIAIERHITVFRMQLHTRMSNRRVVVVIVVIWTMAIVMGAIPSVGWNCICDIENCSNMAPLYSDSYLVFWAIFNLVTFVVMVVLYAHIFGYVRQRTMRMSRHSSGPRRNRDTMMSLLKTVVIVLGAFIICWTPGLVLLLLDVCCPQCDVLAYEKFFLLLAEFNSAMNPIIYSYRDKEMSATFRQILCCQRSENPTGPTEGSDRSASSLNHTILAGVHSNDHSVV

For Cc1ccccc1NC(=N)Nc1ccccc1C [DTG, 1,3-di(2-tolyl)guanidine], the activity at 100 µM ([1]; Rattus norvegicus) was 63.3 ± 7% and the “effect on veratridine-induced [^3H]noradrenaline release at 100 μM (in words)” value (from here on “effect on veratridine-induced … (in words)”) [1, 4] was “inhibited”.
Cl.Clc1cccc2c1CN(NC1=NCCN1)C2 [BDF 6143, 4-chloro-2-(2-imidazolin-2-ylamino)-isoindoline hydrochloride] was tested, and the activity at 100 µM ([1]; Rattus norvegicus) was 74.7 ± 11.1%, the “effect on veratridine-induced … (in words)” value [1, 4] was “inhibited” and the “effect on veratridine-induced [^3H]noradrenaline release (concentration-response)” value [1] was “concentration-dependently inhibited”.
c1ccc(C2CC2)c(OCC2=NCCN2)c1 [Cirazoline, cirazoline hydrochloride] was tested, and the activity at 100 µM ([1]; Rattus norvegicus) was 17.4 ± 7.5% and the “effect on veratridine-induced … (in words)” value [1, 4] was “inhibited”.
COc1cc2c(c(OC)c1OC)-c1ccc(OC)c(=O)cc1[C@@H](NC(C)=O)CC2 [colchicine] was tested, and the inhibition at 50 µM ([1]; Rattus norvegicus, PC-12, read-out: inhibition of veratridine (1 mM)-evoked tritium overflow) was 56%.
COc1ccc(-c2sc3cc(OC)ccc3c2C(=O)c2ccc(C#N)cc2)cc1 [LY320135, [6-methoxy-2-(4-methoxyphenyl)benzo[b]thien-3-yl][4-cyanophenyl]methanone] was tested, and the “interaction with the inhibition produced by 100 μM clonidine” value ([1]; 10 μM LY320135) was “counteracted”, the “evoked [^3H]noradrenaline release (% of evoked release in the respective control experiments)” value ([1]; 10 μM LY320135 together with 10 μM 1-oleoyl-LPA, n=6) was 198.8%±39.9% and the “effect on veratridine-evoked [^3H]noradrenaline release, given alone” value [1] was “did not affect”.
For “[(−)-cis-3-[2-hydroxy-4-(1,1-dimethylheptyl)phenyl]-trans-4-(3-hydroxypropyl)-cyclohexane [CP55,940]”, the “effect on evoked tritium overflow” value ([1]; 0.3 μM CP55,940) was “significantly inhibited”, the “effect on evoked tritium overflow” value ([1]; 1 μM CP55,940) was “no inhibition” and the “effect on evoked tritium overflow” value ([1]; 10 μM CP55,940) was “facilitation”.
In the case of CCCCCCCCCCCCCCCC(=O)OCC(O)COP(=O)(O)O (centres unmarked) [1-palmitoyl-LPA], the “effect on evoked [^3H]noradrenaline release” value ([1]; 10 μM 1-palmitoyl-LPA) is reported as “did not alter” and the “effect on evoked [^3H]noradrenaline release” value ([1]; up to 1 μM 1-palmitoyl-LPA) is reported as “concentration-dependently increased”.
With lysophospatidic acid [LPA] the “effect on [^35S]GTPγS-binding” value [2] was “provoke an increase”.
With Cc1c(C(=O)c2cccc3ccccc23)c2cccc3c2n1[C@@H](CN1CCOCC1)CO3 [WIN55,212-3] the “effect on veratridine-induced … (in words)” value [1, 4] was “did not”.
In the case of N=C(N)NN1Cc2c(Cl)ccc(Cl)c2C1 [Aganodine, aganodine], the “effect on veratridine-induced … (in words)” value [1, 4] is reported as “inhibited” and the “Veratridine (1 mM)-induced [^3H]noradrenaline release (% of controls without drug)” value ([1]; drug 100 μM, 15 mM KCl, 1 μM desipramine and 3 μM rauwolscine throughout, means ± SEM of 6-11 experiments) is reported as 32.3 ± 5.7%.
In the case of N=C(N)NCCCCN.O=S(=O)(O)O [Agmatine, agmatine sulfate], the activity at 100 µM ([1]; Rattus norvegicus) is reported as 76.4 ± 9.5%, the “effect on veratridine-induced … (in words)” value [1, 4] is reported as “inhibited” and the “effect on veratridine-induced [^3H]noradrenaline release (concentration-response)” value [1] is reported as “concentration-dependently inhibited”.
With CCCCCCCC/C=C\CCCCCCCC(=O)OC[C@@H](O)COP(=O)(O)O [1-oleoyl-LPA, 1-oleoyl-lysophosphatidic acid] the “effect on evoked [^3H]noradrenaline release” value ([1]; 10 μM 1-oleoyl-LPA, cells pretreated with 100 μM clonidine for 72 h) was “did not inhibit but tended to increase” and the “effect on veratridine-evoked [^3H]noradrenaline release (concentration-response)” value [1] was “concentration-dependently inhibited”.
With Clc1cccc(Cl)c1N=C1NCCN1 [Clonidine, clonidine hydrochloride] the “effect on [^3H]noradrenaline release” value ([1]; 10 μM clonidine in the presence of 10 μM SR141716A) was “acted facilitatory”, the “evoked [^3H]noradrenaline release (% of veratridine-evoked release in the respective control experiments)” value ([1]; 100 μM clonidine, cells pretreated with 100 μM clonidine for 72 h, n=6) was 171±24% and the activity at 100 µM ([1]; Rattus norvegicus) was 25.6 ± 12.2%. The “effect on veratridine-induced … (in words)” value [1, 4] was “inhibited”, the “effect on veratridine-evoked [^3H]noradrenaline release (concentration-response)” value [1] was “concentration-dependently inhibited” and the “effect on veratridine-induced [^3H]noradrenaline release (concentration-response)” value [1] was “concentration-dependently inhibited”. For the same compound, the “agonist character at the edg2-receptor” value [2] was “full agonists” and the “effect on [^35S]GTPγS-binding” value [2] was “provoke an increase”.
CCCCC/C=C\C/C=C\C/C=C\C/C=C\CCCC(=O)NCCO [Anandamide, anandamide] was tested, and the “effect on veratridine-evoked [^3H]noradrenaline release” value ([1]; 1 μM anandamide) was “did not affect” and the “effect on veratridine-evoked [^3H]noradrenaline release” value ([1]; 100 μM anandamide) was “enhanced”.
For CS(=O)(=O)O.Cc1c(C(=O)c2cccc3ccccc23)c2cccc3c2n1[C@H](CN1CCOCC1)CO3 [WIN55,212-2, R(+)-[2,3-dihydro-5-methyl-3-[(morpholinyl)methyl]pyrrolo[1,2,3-de]-1,4-benzoxazin-yl)(1-naphthalenyl)methanone mesylate], the “effect on veratridine-induced [^3H]noradrenaline release (concentration-response)” value [1] was “concentration-dependently inhibited”.
With NC[C@H](O)c1ccc(O)c(O)c1 [Noradrenaline, noradrenaline base] the activity at 100 µM ([1]; Rattus norvegicus) was 93 ± 11.5% and the “effect on veratridine-induced … (in words)” value [1, 4] was “failed to modify”.
COc1nc(C)nc(Cl)c1N=C1NCCN1 [Moxonidine, moxonidine] was tested, and the activity at 100 µM ([1]; Rattus norvegicus) was 81.6 ± 5.2%, the “effect on veratridine-induced [^3H]noradrenaline release” value ([1]; up to a concentration of 1000 μM, 3 μM rauwolscine present) was “failed to modify” and the “agonist character at the edg2-receptor” value [2] was “full agonists”. For the same compound, the “effect on [^35S]GTPγS-binding” value [2] was “provoke an increase”.
With COC(=O)[C@H]1[C@H]2C[C@H]3c4[nH]c5ccccc5c4CCN3C[C@H]2CC[C@@H]1O [Rauwolscine, Rauwolscine hydrochloride] the “effect on the concentration-response curve of clonidine” value (“effect … of clonidine” for short) ([1]; 3 μM rauwolscine versus absence of rauwolscine) was “did not substantially differ”, the “effect … of clonidine” value ([1]; 30 μM rauwolscine) was “shifted to the right” and the “interaction with the inhibitory effect of 10 μM 1-oleoyl-LPA” value ([1]; 30 μM rauwolscine) was “counteracted”. For the same compound, the “effect on veratridine-induced [^3H]noradrenaline release, given alone” value ([1]; rauwolscine 3 μM alone, n=6) was “did not significantly modify”.
With Cc1c(C(=O)NN2CCCCC2)nn(-c2ccc(Cl)cc2Cl)c1-c1ccc(Cl)cc1 [SR141716A, N-[piperidin-1-yl]-5-[4-chlorophenyl]-1-[2,4-dichlorophenyl]-4-methyl-1H-pyrazole-3-carboxamide] the “interaction with the inhibition produced by 100 μM clonidine” value ([1]; 1 μM SR141716A) was “counteracted”, the “interaction with the inhibitory effect of 10 μM 1-oleoyl-LPA” value ([1]; 1 μM SR141716A) was “counteracted” and the “interaction with the inhibitory effect of 0.3 μM CP55,940” value ([1]; 1 μM SR141716A + 3 μM rauwolscine) was “antagonized”. The “effect … of clonidine” value ([1]; 10 μM SR141716A) was “shifted to the right” and the “effect on veratridine-evoked [^3H]noradrenaline release, given alone” value [1] was “did not affect”.
For COC(=O)[C@H]1[C@H]2C[C@H]3c4[nH]c5ccccc5c4CCN3C[C@H]2CC[C@@H]1O [[^3H]Rauwolscine, [O-methyl-3H]rauwolscine], the “[^3H]Rauwolscine binding as % of the radioactivity added to each assay” value ([3]; absence of 10 μM rauwolscine) was 0.19±0.01%, the “[^3H]Rauwolscine binding” value ([3]; absence of 10 μM rauwolscine) was 134.0±7.1 fmol/mg protein and the “[^3H]Rauwolscine binding as % of the radioactivity added to each assay” value ([3]; presence of 10 μM rauwolscine) was 0.19±0.01%. The “[^3H]Rauwolscine binding” value ([3]; presence of 10 μM rauwolscine) was 132.8±7.0 fmol/mg protein.
For CCCCCCCCCCCCC/C=C/[C@@H](O)[C@@H](N)COP(=O)(O)O [S1P, sphingosine-1-phosphate], the “evoked [^3H]noradrenaline release (% of veratridine-evoked release in the respective control experiments)” value ([1]; 10 μM S1P, n=6) was 101.7%±31.3%.
